Measured values as given in ChEMBL document CHEMBL1152775, “Effect of 3,4-ethylenedioxy-extension of thiophene core on the DNA/RNA binding properties and biological activity of bisbenzimidazole amidines” (Bioorg Med Chem, 2009).
Calls of active or inactive are those of the source. The calls are words filed in the database; no cut-off is given here.

Columns and labels:
Calf thymus DNA [1] = assay: Binding affinity to calf thymus double stranded DNA assessed as change in melting temperature at drug to DNA ratio of 0.05 by thermal denaturation study; format: nucleic-acid assay; details: Bos taurus
Calf thymus DNA [2] = assay: Binding affinity to calf thymus double stranded DNA minor groove at drug to DNA ratio of 0 to 0.2 by CD spectroscopy; format: nucleic-acid assay; details: Bos taurus
Calf thymus DNA [3] = assay: Binding affinity to calf thymus double stranded DNA by UV visible spectroscopy; format: nucleic-acid assay; details: Bos taurus
Nucleic Acid [4] = assay: Binding affinity to poly A-poly U double stranded RNA assessed as change in melting temperature at […] of 0.1 by thermal denaturation study; format: nucleic-acid assay
[5] = Binding affinity to poly A-poly U double stranded RNA by CD spectroscopy
MCF7 [6] = assay: Antiproliferative activity against human MCF7 cells at 0.1 to 100 uM after 72 hrs by MTT assay; format: functional, cell-based
Bos taurus = organism: Bos taurus; assay: Ratio of IC50 of ethidium bromide to IC50 of drug for calf thymus DNA by ethidium bromide displacement assay
Calf thymus DNA [7] = assay: Binding affinity to calf thymus double stranded DNA assessed as change in melting temperature at drug to DNA ratio of 0.2 by thermal denaturation study; format: nucleic-acid assay; details: Bos taurus
Calf thymus DNA [8] = assay: Binding affinity to calf thymus double stranded DNA assessed as change in melting temperature at drug to DNA ratio of 0.1 by thermal denaturation study; format: nucleic-acid assay; details: Bos taurus
Nucleic Acid [9] = assay: Binding affinity to poly A-poly U double stranded RNA assessed as change in melting temperature at […] of 0.3 by thermal denaturation study; format: nucleic-acid assay
[10] = Binding affinity to poly A-poly U double stranded RNA by UV visible spectroscopy
Calf thymus DNA [11] = assay: Binding affinity to calf thymus double stranded DNA assessed as change in melting temperature at drug to DNA ratio of 0.3 by thermal denaturation study; format: nucleic-acid assay; details: Bos taurus
Nucleic Acid [12] = assay: Binding affinity to poly A-poly U double stranded RNA assessed as change in melting temperature at […] of 0.2 by thermal denaturation study; format: nucleic-acid assay
HeLa [13] = assay: Cell cycle distribution in human HeLa cells assessed as accumulation at G0/G1 phase at 10 uM after 48 hrs by propidium iodide-based flow cytometry; format: functional
HeLa [14] = assay: Cell cycle distribution in human HeLa cells assessed as accumulation at S phase at 10 uM after 48 hrs by propidium iodide-based flow cytometry; format: functional
HeLa [15] = assay: Cell cycle distribution in human HeLa cells assessed as accumulation at S phase at 10 uM after 72 hrs by propidium iodide-based flow cytometry; format: functional
HeLa [16] = assay: Cell cycle distribution in human HeLa cells assessed as accumulation at G2/M phase at 10 uM after 72 hrs by propidium iodide-based flow cytometry; format: functional
HeLa [17] = assay: Cell cycle distribution in human HeLa cells assessed as accumulation at G0/G1 phase at 10 uM after 72 hrs by propidium iodide-based flow cytometry; format: functional
HeLa [18] = assay: Cell cycle distribution in human HeLa cells assessed as accumulation at G2/M phase at 10 uM after 24 hrs by propidium iodide-based flow cytometry; format: functional
HeLa [19] = assay: Cell cycle distribution in human HeLa cells assessed as accumulation at G2/M phase at 10 uM after 48 hrs by propidium iodide-based flow cytometry; format: functional
HEp-2 [20] = assay: Antiproliferative activity against human Hep2 cells at 0.1 to 100 uM after 72 hrs by MTT assay; format: functional, cell-based
HeLa [21] = assay: Antiproliferative activity against human HeLa cells at 0.1 to 100 uM after 72 hrs by MTT assay; format: functional, cell-based
Trypanosoma cruzi [22] = assay: Antitrypanosomal activity against Trypanosoma cruzi clone 14 epimastigotes after 8 days; format: functional, organism-based; details: 192 h
HeLa [23] = assay: Antiproliferative activity against human HeLa cells at 1 uM after 72 hrs by MTT assay relative to control; format: functional
MIA PaCa-2 = assay: Antiproliferative activity against human MIAPaCa2 cells at 0.1 to 100 uM after 72 hrs by MTT assay; format: functional, cell-based
HeLa [24] = assay: Cell cycle distribution in human HeLa cells assessed as accumulation at G2/M phase at 1 uM after 72 hrs by propidium iodide-based flow cytometry; format: functional
Trypanosoma cruzi [25] = assay: Antitrypanosomal activity against Trypanosoma cruzi clone 14 epimastigotes on day 5; format: functional, organism-based; details: 120 h
Caco-2 = assay: Antiproliferative activity against human Caco-2 cells at 0.1 to 100 uM after 72 hrs by MTT assay; format: functional, cell-based
NCI-H358 = assay: Antiproliferative activity against human NCI-H358 cells at 0.1 to 100 uM after 72 hrs by MTT assay; format: functional, cell-based
MCF7 [26] = assay: Antiproliferative activity against human MCF7 cells at 0.1 uM after 72 hrs by MTT assay relative to control; format: functional; details: MCF7, 72 h
HEp-2 [27] = assay: Antiproliferative activity against human Hep2 cells at 1 uM after 72 hrs by MTT assay relative to control; format: functional; details: HEp-2, 72 h
HeLa [28] = assay: Cell cycle distribution in human HeLa cells assessed as accumulation at S phase at 1 uM after 72 hrs by propidium iodide-based flow cytometry; format: functional
HeLa [29] = assay: Cell cycle distribution in human HeLa cells assessed as accumulation at G0/G1 phase at 1 uM after 48 hrs by propidium iodide-based flow cytometry; format: functional
AGS = assay: Antiproliferative activity against human AGS cells at 0.1 to 100 uM after 72 hrs by MTT assay; format: functional, cell-based
HT-29 = assay: Antiproliferative activity against human HT-29 cells at 0.1 to 100 uM after 72 hrs by MTT assay; format: functional, cell-based
HeLa [30] = assay: Cell cycle distribution in human HeLa cells assessed as accumulation at G2/M phase at 1 uM after 48 hrs by propidium iodide-based flow cytometry; format: functional
HeLa [31] = assay: Cell cycle distribution in human HeLa cells assessed as accumulation at S phase at 1 uM after 48 hrs by propidium iodide-based flow cytometry; format: functional
HeLa [32] = assay: Cell cycle distribution in human HeLa cells assessed as accumulation at G0/G1 phase at 1 uM after 72 hrs by propidium iodide-based flow cytometry; format: functional
HeLa [33] = assay: Cell cycle distribution in human HeLa cells assessed as accumulation at G2/M phase at 1 uM after 24 hrs by propidium iodide-based flow cytometry; format: functional

| Compound | ΔTm (Calf thymus DNA [1]) | Activity (Calf thymus DNA [2]) | Activity (Calf thymus DNA [3]) | ΔTm (Nucleic Acid [4]) | Activity [5] | Activity (MCF7 [6]) | Ratio IC50 (Bos taurus) | ΔTm (Calf thymus DNA [7]) | ΔTm (Calf thymus DNA [8]) | ΔTm (Nucleic Acid [9]) | Activity [10] | ΔTm (Calf thymus DNA [11]) | ΔTm (Nucleic Acid [12]) | also measured |
| --- | --- | --- | --- | --- | --- | --- | --- | --- | --- | --- | --- | --- | --- | --- |
| c1cc2nc(-c3sc(-c4nc5ccc(C6=NCCN6)cc5[nH]4)c4c3OCCO4)[nH]c2cc1C1=NCCN1 | 12.2 °C | Active | Active | 0.4 °C | Active | Active | 0.38 | 11.4 °C | 11.9 °C | -0.2 °C | Active | 12.3 °C | 0.3 °C | – |
| N=C(N)c1ccc2nc(-c3sc(-c4nc5ccc(C(=N)N)cc5[nH]4)c4c3OCCO4)[nH]c2c1 | 12.7 °C | Active | Active | – | Active | Active | 0.48 | 13.9 °C | 14.4 °C | -0.9 °C | Active | 12.9 °C | -0.3 °C | – |
| CN1CCN(c2ccc3[nH]c(-c4ccc5[nH]c(-c6ccc(O)cc6)nc5c4)nc3c2)CC1 [HOECHST 33258] | – | – | – | – | – | Active | – | – | – | – | – | – | – | Activity (HeLa [13]): 33.6%; Activity (HeLa [14]): 23.4%; Activity (HeLa [15]): 46.3%; Activity (HeLa [16]): 29.9%; Activity (HeLa [17]): 43.1%; Activity (HeLa [18]): inactive; Activity (HeLa [19]): 23.9% |
| CC(C)NC(=N)c1ccc2nc(-c3sc(-c4nc5ccc(C(=N)NC(C)C)cc5[nH]4)c4c3OCCO4)[nH]c2c1.Cl.Cl | 11.7 °C | Active | Active | 0.9 °C | Active | Active | 0.38 | > 15.4 °C | > 15.4 °C | – | Active | – | 0.8 °C | Activity (HEp-2 [20]): Active; Activity (HeLa [21]): Active; IC50 (Trypanosoma cruzi [22]): 2400 nM; inhibition at 1 µM (HeLa [23]): 40%; Activity (MIA PaCa-2): Active; Activity (HeLa [24]): 15.2%; IC50 (Trypanosoma cruzi [25]): 4.25 µM; Activity (Caco-2): Active; Activity (NCI-H358): Active; inhibition at 0.1 µM (MCF7 [26]): 40%; inhibition at 1 µM (HEp-2 [27]): 80%; Activity (HeLa [28]): 49.8%; Activity (HeLa [29]): 46.9%; Activity (AGS): Active; Activity (HT-29): Active; Activity (HeLa [30]): 35%; Activity (HeLa [31]): 22.4%; Activity (HeLa [32]): 30.7%; Activity (HeLa [33]): Active |
